Assay [1] addresses human GLP-1 receptor (hGLP-1R) (Homo sapiens, UniProt P43220). Description: cAMP production (HTRF) in CHO cells expressing hGLP-1R. Format: cell-based. The arrangement: expressed in transfected cells. The note with it: for pEC50: geometric mean, read-out: hGLP-1R EC50; for % Relative Potency Ratio: % GLP-1R activity relative to GLP-1 / % GlucR activity relative to glucagon. The method in brief: (§1)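 Read-out: HTRF cAMP (anti-cAMP cryptate donor, cAMP-d2 acceptor in conjugate/lysis buffer), converted to % Delta F and fitted by 4-parameter logistic for EC50. Cell densities were 1×10^5 cells/mL (hGLP-1R) or 2×10^5 cells/mL (hGCGR). Stimulation lasted 30 min at room temperature.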
(Cyclic AMP is a second messenger, typically raised through Gs and lowered through Gi signalling.)

The nature of assay [2]: Mouse acute food intake study. It counts as in vivo. As to conditions: male C57Bl/6 mice, s.c., cumulative food intake at 24 hr vs vehicle. The procedure:
Male C57Bl/6 mice obtained from Jackson Laboratories or Charles River at 8-9 weeks of age and were housed one per cage in BioDaq (Research Diets) cages. Mice were placed on Alpha Dri bedding, standard chow diet (Envigo, 2018) and given water pouches. Mice were allowed to acclimate for 1-2 weeks. Body weight was measured to ensure appropriate acclimation. After acclimation, mice were sham dosed a minimum of 2 times prior to initiation of food intake study. On study day, mice were placed in clean cage bottoms, weighed, and fasted for 6-8 hours. Mice were sorted into groups based on average 24-hour food intake data and body weight. 1-2 hours prior to lights out, mice were dosed subcutaneously with one vehicle or test peptide dissolved in an appropriate vehicle at 5 mL/kg. Mice were left undisturbed and allowed access to food and water for 48 hours. Automated food intake was monitored in the BioDaq system was monitored during this time. Discrete food intake data was exported into MS Excel from which cumulative food intake data was generated and analyzed.

For assay [3], the target named is human glucagon receptor (hGCGR) (Homo sapiens, UniProt P47871). As to the kind of experiment: cAMP production (HTRF) in CHO cells expressing hGCGR. The arrangement: expressed in transfected cells. The note with it: geometric mean, read-out: hGluc-R EC50. It counts as cell-based. The method in brief:
as §1

[4] abbreviates: Table 7, peptides modified at position 20, cAMP in CHO hGLP-1R cells.
The mark [5] stands for this setting: Table 7, peptides modified at position 20, cAMP in CHO hGCGR cells.

We go through 5 compounds from US20250353891A1 (MEDIMMUNE LIMITED, priority 2022, published 2025).

pEC50: −log10 of the molar value. Read-outs that look alike come from different tables or passages of the source. Starred links: 1 amine or outer side, 2 acyl side, 3 side chain; linkers in the order of their positions; H or OH if unused. Non-standard residues stand in square brackets, D forms with d. Residues, ends and D or L forms follow the SMILES beside them. Groups on a side chain read outwards from the residue. *: point of attachment. C20 diacid = O=C(O)CCCCCCCCCCCCCCCCCCC(=O)*; C18 diacid = O=C(O)CCCCCCCCCCCCCCCCC(=O)*; γGlu = O=C(O)[C@H](CCC(=O)[*:2])N[*:1]; αMeF = C[C@](N)(Cc1ccccc1)C(=O)O; AEEA = NCCOCCOCC(=O)O; Aib = CC(C)(N)C(=O)O

Chain of human GLP-1 receptor (hGLP-1R) (P43220 24-463): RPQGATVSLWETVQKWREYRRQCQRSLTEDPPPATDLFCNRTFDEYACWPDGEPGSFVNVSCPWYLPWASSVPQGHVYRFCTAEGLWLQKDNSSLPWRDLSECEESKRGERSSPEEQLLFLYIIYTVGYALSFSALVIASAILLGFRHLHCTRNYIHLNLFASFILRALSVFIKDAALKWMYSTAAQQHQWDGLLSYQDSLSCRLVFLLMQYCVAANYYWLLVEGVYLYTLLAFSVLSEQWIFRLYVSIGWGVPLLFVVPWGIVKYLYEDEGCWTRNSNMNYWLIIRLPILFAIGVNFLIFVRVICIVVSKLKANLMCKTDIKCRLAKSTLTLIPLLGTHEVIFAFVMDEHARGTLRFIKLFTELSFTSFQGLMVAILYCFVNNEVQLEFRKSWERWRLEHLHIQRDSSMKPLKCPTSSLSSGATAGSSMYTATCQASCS
Chain of human glucagon receptor (hGCGR) (P47871 26-477): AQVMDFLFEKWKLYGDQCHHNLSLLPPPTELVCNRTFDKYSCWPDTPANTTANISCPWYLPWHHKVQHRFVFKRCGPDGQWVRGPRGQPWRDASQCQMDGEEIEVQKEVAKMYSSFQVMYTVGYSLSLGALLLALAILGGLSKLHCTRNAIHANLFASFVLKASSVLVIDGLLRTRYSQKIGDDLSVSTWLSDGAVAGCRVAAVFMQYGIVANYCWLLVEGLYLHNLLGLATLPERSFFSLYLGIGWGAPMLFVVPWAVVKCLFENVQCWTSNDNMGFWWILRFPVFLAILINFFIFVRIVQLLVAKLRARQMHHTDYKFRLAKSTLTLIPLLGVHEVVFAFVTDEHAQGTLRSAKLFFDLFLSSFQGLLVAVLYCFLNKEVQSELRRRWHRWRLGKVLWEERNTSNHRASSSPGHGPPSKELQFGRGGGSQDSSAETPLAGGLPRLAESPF

As usually defined, the pEC50 is the EC50 on a negative log10 scale, so that one unit is a factor of ten. On to `CC[C@H](C)[C@H](NC(=O)C(C)(C)NC(=O)[C@H](CCC(N)=O)NC(=O)[C@@H](NC(=O)[C@](C)(Cc1ccccc1)NC(=O)[C@H](CC(=O)O)NC(=O)[C@H](CCCCNC(=O)COCCOCCNC(=O)COCCOCCNC(=O)CC[C@H](NC(=O)CCCCCCCCCCCCCCCCC(=O)O)C(=O)O)NC(=O)[C@H](C)NC(=O)[C@H](C)NC(=O)[C@H](CCCNC(=N)N)NC(=O)[C@H](CO)NC(=O)[C@H](CC(=O)O)NC(=O)[C@H](CC(C)C)NC(=O)[C@](C)(Cc1ccccc1)NC(=O)[C@H](CCCCN)NC(=O)[C@H](CO)NC(=O)[C@@H](NC(=O)[C@H](CC(=O)O)NC(=O)[C@H](CO)NC(=O)[C@@H](NC(=O)[C@](C)(Cc1ccccc1)NC(=O)[C@H](CO)NC(=O)CNC(=O)[C@H](Cc1c[nH]cn1)NC(=O)C(C)(C)NC(=O)[C@@H](N)Cc1c[nH]cn1)[C@@H](C)O)C(C)C)C(C)C)C(=O)N[C@@H](C)C(=O)N[C@@H](CCC(=O)O)C(=O)N[C@H](C(N)=O)[C@@H](C)O` [Peptide 300] (H-H[Aib]HGS[αMeF]TSDVSK[αMeF]LDSRAAK([AEEA-AEEA-γGlu-C18 diacid])D[αMeF]VQ[Aib]IAET-NH2), for which the pEC50 in assay [1] (setting [4]) was 10.70; in assay [3] (setting [5]), 10.74. Further, the “% Relative Potency Ratio” value in assay [1] (Table 7) is 1.8. Moreover, in assay [2] (dose 10 nmol/kg), the “24 hr % Vehicle Food Intake” value turned out to be 45.2%.

As for `CC[C@H](C)[C@H](NC(=O)C(C)(C)NC(=O)[C@H](C)NC(=O)[C@@H](NC(=O)[C@](C)(Cc1ccccc1)NC(=O)[C@H](CC(=O)O)NC(=O)[C@H](CCCCNC(=O)COCCOCCNC(=O)COCCOCCNC(=O)CC[C@H](NC(=O)CC[C@H](NC(=O)CCCCCCCCCCCCCCCCCCC(=O)O)C(=O)O)C(=O)O)NC(=O)[C@H](C)NC(=O)[C@H](C)NC(=O)[C@H](CCCNC(=N)N)NC(=O)[C@H](CO)NC(=O)[C@H](CC(=O)O)NC(=O)[C@H](CC(C)C)NC(=O)[C@](C)(Cc1ccccc1)NC(=O)[C@H](CCCCN)NC(=O)[C@H](CO)NC(=O)[C@@H](NC(=O)[C@H](CC(=O)O)NC(=O)[C@H](CO)NC(=O)[C@@H](NC(=O)[C@](C)(Cc1ccccc1)NC(=O)[C@H](CO)NC(=O)CNC(=O)[C@H](Cc1c[nH]cn1)NC(=O)C(C)(C)NC(=O)[C@@H](N)Cc1c[nH]cn1)[C@@H](C)O)C(C)C)[C@@H](C)CC)C(=O)N[C@@H](C)C(=O)N[C@@H](CCC(=O)O)C(=O)N[C@H](C(N)=O)[C@@H](C)O` [Peptide 302] (H-H[Aib]HGS[αMeF]TSDVSK[αMeF]LDSRAAK([AEEA-AEEA-γGlu-γGlu-C20 diacid])D[αMeF]IA[Aib]IAET-NH2), the pEC50 in assay [1] (setting [4]) was 9.82; in assay [3] (setting [5]) it was 9.57. Besides, the “% Relative Potency Ratio” value in assay [1] (Table 7) is 3.5. Also, the “24 hr % Vehicle Food Intake” value in assay [2] (dose 30 nmol/kg) is given as 46.4%.

With `CC[C@H](C)[C@H](NC(=O)[C@H](Cc1c[nH]c2ccccc12)NC(=O)[C@H](CCCCNC(=O)COCCOCCNC(=O)COCCOCCNC(=O)CC[C@H](NC(=O)CC[C@H](NC(=O)CCCCCCCCCCCCCCCCC(=O)O)C(=O)O)C(=O)O)NC(=O)[C@@H](NC(=O)[C@H](Cc1ccccc1)NC(=O)[C@H](CC(=O)O)NC(=O)[C@H](CCC(N)=O)NC(=O)[C@H](C)NC(=O)[C@H](C)NC(=O)[C@H](CCCNC(=N)N)NC(=O)[C@H](CO)NC(=O)[C@H](CC(=O)O)NC(=O)[C@H](CC(C)C)NC(=O)[C@](C)(Cc1ccccc1)NC(=O)[C@H](CCCCN)NC(=O)[C@H](CO)NC(=O)[C@@H](NC(=O)[C@H](CC(=O)O)NC(=O)[C@H](CO)NC(=O)[C@@H](NC(=O)[C@](C)(Cc1ccccc1)NC(=O)[C@H](CO)NC(=O)CNC(=O)[C@H](Cc1c[nH]cn1)NC(=O)C(C)(C)NC(=O)[C@@H](N)Cc1c[nH]cn1)[C@@H](C)O)C(C)C)C(C)C)C(=O)N[C@@H](C)C(=O)N[C@@H](CC(N)=O)C(=O)N[C@H](C(=O)NCC(=O)NCC(N)=O)[C@@H](C)O` [Peptide 364] (H-H[Aib]HGS[αMeF]TSDVSK[αMeF]LDSRAAQDFVK([AEEA-AEEA-γGlu-γGlu-C18 diacid])WIANTGG-NH2), in assay [1], the “% Relative Potency Ratio” value amounted to 2.6. The pEC50 was 10.63 in assay [1] (cAMP, CHO cells, 0.1% BSA) and 10.52 in assay [3] (cAMP, CHO cells, 0.1% BSA). Besides, in assay [2] (dose 10 nmol/kg), the “24 hr % Vehicle Food Intake” value amounted to 63.7%.

As for `CC[C@H](C)[C@H](NC(=O)C(C)(C)NC(=O)[C@H](CCCCNC(=O)COCCOCCNC(=O)COCCOCCNC(=O)CC[C@H](NC(=O)CCCCCCCCCCCCCCCCC(=O)O)C(=O)O)NC(=O)[C@@H](NC(=O)[C@H](Cc1ccccc1)NC(=O)[C@H](CC(=O)O)NC(=O)[C@H](CCC(N)=O)NC(=O)[C@H](C)NC(=O)[C@H](C)NC(=O)[C@H](CCCNC(=N)N)NC(=O)[C@H](CO)NC(=O)[C@H](CC(=O)O)NC(=O)[C@H](CC(C)C)NC(=O)[C@](C)(Cc1ccccc1)NC(=O)[C@H](CCCCN)NC(=O)[C@H](CO)NC(=O)[C@@H](NC(=O)[C@H](CC(=O)O)NC(=O)[C@H](CO)NC(=O)[C@@H](NC(=O)[C@](C)(Cc1ccccc1)NC(=O)[C@H](CO)NC(=O)CNC(=O)[C@H](Cc1c[nH]cn1)NC(=O)C(C)(C)NC(=O)[C@@H](N)Cc1c[nH]cn1)[C@@H](C)O)C(C)C)C(C)C)C(=O)N[C@@H](C)C(=O)N[C@@H](CC(N)=O)C(=O)N[C@H](C(N)=O)[C@@H](C)O` [Peptide 366] (H-H[Aib]HGS[αMeF]TSDVSK[αMeF]LDSRAAQDFVK([AEEA-AEEA-γGlu-C18 diacid])[Aib]IANT-NH2; N-terminus assumed), in assay [1], the “% Relative Potency Ratio” value is 1.7. Further, the pEC50 in assay [1] (cAMP, CHO cells, 0.1% BSA) is 10.51; in assay [3] (cAMP, CHO cells, 0.1% BSA), 10.56. Also, the “24 hr % Vehicle Food Intake” value in assay [2] (dose 10 nmol/kg) worked out at 83.5%.

Take `CC[C@H](C)[C@H](NC(=O)C(C)(C)NC(=O)[C@H](CCCCNC(=O)COCCOCCNC(=O)COCCOCCNC(=O)CC[C@H](NC(=O)CC[C@H](NC(=O)CCCCCCCCCCCCCCCCCCC(=O)O)C(=O)O)C(=O)O)NC(=O)[C@@H](NC(=O)[C@](C)(Cc1ccccc1)NC(=O)[C@H](CC(=O)O)NC(=O)[C@H](CCC(N)=O)NC(=O)[C@H](C)NC(=O)[C@H](C)NC(=O)[C@H](CCCNC(=N)N)NC(=O)[C@H](CO)NC(=O)[C@H](CC(=O)O)NC(=O)[C@H](CC(C)C)NC(=O)[C@](C)(Cc1ccccc1)NC(=O)[C@H](CCCCN)NC(=O)[C@H](CO)NC(=O)[C@@H](NC(=O)[C@H](CC(=O)O)NC(=O)[C@H](CO)NC(=O)[C@@H](NC(=O)[C@](C)(Cc1ccccc1)NC(=O)[C@H](CO)NC(=O)CNC(=O)[C@H](Cc1c[nH]cn1)NC(=O)C(C)(C)NC(=O)[C@@H](N)Cc1c[nH]cn1)[C@@H](C)O)C(C)C)C(C)C)C(=O)N[C@@H](C)C(=O)N[C@@H](CC(N)=O)C(=O)N[C@H](C(N)=O)[C@@H](C)O` [Peptide 375] (H-H[Aib]HGS[αMeF]TSDVSK[αMeF]LDSRAAQD[αMeF]VK([AEEA-AEEA-γGlu-γGlu-C20 diacid])[Aib]IANT-NH2; N-terminus assumed): the “% Relative Potency Ratio” value in assay [1] turned out to be 1.4. Moreover, the pEC50 in assay [1] (cAMP, CHO cells, 0.1% BSA) is 9.65; in assay [3] (cAMP, CHO cells, 0.1% BSA) it was 9.81. For the same compound, in assay [2] (dose 10 nmol/kg), the “24 hr % Vehicle Food Intake” value was determined as 66.0%.
